Experimental data taken from US20060264455A1 (priority 2005, published 2006).
Several values for one entry are separate records, joined by “and”; a condition that tells them apart may be missing. Equal values may be shown once. Read-outs that look alike come from different tables or passages of the source.

Columns and labels:
[1] = system: formalin-induced paw-licking; test: Formalin test (paw licking/biting) in mice; type: in vivo; conditions: for Duration of Licking: Trial 1, one value per animal #01-08; for activity at 0.5 mg/kg / activity at 1 mg/kg: Mus musculus, ip, read-out: Area Under the Curve, % of Control
Description: The formalin test for antinociceptive activity is described in numerous publications, e.g., Hunskaar, S., O. B. Fasmer, and K. Hole, J. Neurosci. […] The formalin test is accepted as an art recognized model of persistent clinical pain.
Male Swiss Webster NIH mice (20-30 g; Harlan, San Diego, Calif.) were used in the experiments described herein. Food was withdrawn on the day of experiment. Mice were placed in Plexiglass jars for at least 1 hour to accommodate to the environment. Following the accommodation period, mice were weighed and given either a huperzine compound administered intraperitoneal (i.p.) or oral (p.o.), or the appropriate volume of vehicle (10% Tween-80). Fifteen minutes after the i.p. dosing, and 30 minutes after the p.o. dosing mice were injected with formalin (20 μL of 5% formaldehyde solution in saline) into the dorsal surface of the right hind paw. Mice were transferred to the Plexiglass jars and monitored for the amount of time spent licking or biting the injected paw. Periods of licking and biting were recorded in 5 minute intervals for 40 minutes after the formalin injection. All experiments were done in a blinded manner. The early phase (acute) of the formalin response is measured as licking/biting between 0-5 minutes, and the late phase (inflammatory) is measured from 10-40 minutes. Differences between vehicle and drug treated groups are analyzed by one-way analysis of variance (ANOVA). A P value<0.05 is considered significant.
Fifteen minutes after the i.p. dosing, mice were injected with formalin (20 μL of 5% formaldehyde solution in saline) into the dorsal surface of the right hind paw. Periods of licking and biting were recorded in 5 minute intervals for 40 minutes after the formalin injection as shown below in Tables 1 and 2. All experiments were done according to the art-recognized Anticonvulsant Screening Program of the NINDS at the University of Utah.
Duration of paw licking in the tables below is expressed in seconds.

[2] = Toxicity Model (TOX), rotorod, mice; type: in vivo; conditions: male, CFI, mouse, in vivo, ip; mice
From the text: (§1) To investigate the neurotoxicity levels of the huperzine compounds, the Toxicity Model (TOX) using a rotorod is employed. The animals (e.g., mice) were trained to stand on an accelerating rotorod rotating at 10 rev min^−1 with a diameter of 3.2 cm. The trained animal can be given the huperzine compound at various doses and the effect of huperzine on their motor skills can be determined. The dose at which the animals fell off the rotorod is the toxic dose.
(§2) The neurotoxicity of huperzine was tested in the rotorod test. The mice were trained to stand on an accelerating rotorod rotating at 10 rev min^−1 with a diameter of 3.2 cm. The trained animals were given the huperzine at various doses and the effect of huperzine on their motor skills was determined. The dose at which the animals fell off the rotorod was the toxic dose.

[3] = system: motor skills on rotorod; test: Toxicity Model (TOX), rotorod, mice; type: in vivo; conditions: for N/F (mice showing an effect / mice tested), TOX: ip; for Behavioral motor impairment, share of mice tested: po
From the text: as §1, §2

[4] = system: hippocampal kindled seizures; test: Rapid hippocampal kindling model, rat; type: in vivo; conditions: 1 mg/kg, i.p., time of test ¼-3 h
Description: Seizure testing was carried out as follows.

[5] = system: subcutaneous Metrazol (pentylenetetrazol) seizures; conditions: i.p.
Description: Male, 18-25 g CFI mice and 100-125 g Sprague-Dawley rats (Charles River Laboratories, Wilmington, Mass.) were used as the experimental animals. Animals were pretreated intraperitoneally (i.p.) with increasing doses of HupA and tested at various times after administration for protection against tonic extension (MES test), minimal clonic (s.c. PTZ test), limbic (6 Hz), or secondarily generalized (kindled rat) seizures. Seizure testing was carried out as follows. For the MES and 6 Hz tests, a drop of anesthetic/electrolyte solution (0.5% tetracaine hydrochloride in 0.9% saline) was applied to the eyes of each animal prior to placement of the corneal electrodes. […] The ability of the test substance to prevent seizures induced by 6 Hz corneal stimulation (32 mA, 3 sec duration) was assessed at various times after i.p. administration of 1 mg/kg HupA For assessment of hippocampal kindling, HupA (1 mg/kg, i.p.) was administered.

[6] = system: minimal motor impairment (ataxia, abnormal gait and stance); conditions: rat, in vivo
[7] = system: 6 Hz limbic seizures (corneal stimulation); conditions: for N/F, Time to Peak Effect: IP, 32 mA series; for COMMENT (observed effect): ip
From the text: (§3) These three tests are highly predictive of efficacy against human generalized tonic-clonic (MES), generalized myoclonic (sc PTZ), and refractory limbic (6 Hz) seizures, respectively.
(§4) Male, 18-25 g CFI mice and 100-125 g Sprague-Dawley rats (Charles River Laboratories, Wilmington, Mass.) were used as the experimental animals. Animals were pretreated intraperitoneally (i.p.) with increasing doses of HupA and tested at various times after administration for protection against tonic extension (MES test), minimal clonic (s.c. PTZ test), limbic (6 Hz), or secondarily generalized (kindled rat) seizures. Seizure testing was carried out as follows. For the MES and 6 Hz tests, a drop of anesthetic/electrolyte solution (0.5% tetracaine hydrochloride in 0.9% saline) was applied to the eyes of each animal prior to placement of the corneal electrodes.

[8] = system: patients; conditions: human, in vivo; cited from earlier work
[9] = system: 6 Hz limbic seizures (corneal stimulation); test: animal or person; conditions: Mus musculus, ip
From the text: as §3, §4

[10] = system: maximal electroshock (MES) tonic extension seizures; test: Maximal Electroshock (MES) model, mice; conditions: for Mice protected against seizures, MES: 3 mg/kg; for N/F, MES time course: mice, I.P., 5 mg/kg
From the text: (§5) The maximal electroshock (MES) model is an art recognized test, useful to investigate the efficacy of therapeutic agents against grand mal seizures. Maximal seizures were induced by the application of electrical current to the brain via corneal electrodes. The stimulus parameters for mice were 50 mA in a pulse of 60 Hz for 200 ms.
(§6) Male, 18-25 g CFI mice and 100-125 g Sprague-Dawley rats (Charles River Laboratories, Wilmington, Mass.) were used as the experimental animals. Animals were pretreated intraperitoneally (i.p.) with increasing doses of HupA and tested at various times after administration for protection against tonic extension (MES test), minimal clonic (s.c. PTZ test), limbic (6 Hz), or secondarily generalized (kindled rat) seizures. Seizure testing was carried out as follows. For the MES and 6 Hz tests, a drop of anesthetic/electrolyte solution (0.5% tetracaine hydrochloride in 0.9% saline) was applied to the eyes of each animal prior to placement of the corneal electrodes. […] Animals not displaying secondarily generalize seizures were considered protected.

[11] = system: maximal electroshock (MES) tonic extension seizures; test: Maximal Electroshock (MES) model, rats; conditions: oral, 1 mg/kg
From the text: as §5, §6

[12] = 0.5 mg/kg i.p., Inflammatory phase
[13] = 1 mg/kg i.p., Inflammatory phase

For `C/C=C1\[C@H]2C=C(C)C[C@]1(N)c1ccc(=O)[nH]c1C2` [Huperzine A], the Time spent licking ([1]; 0.5 mg/kg i.p.) was “impressive reduction in the time spent licking”, the “Duration of Licking” value ([1]; 0.5 mg/kg i.p., 0 min) was 10.00 sec and 0.00 sec and 3.00 sec and 1.00 sec (4×) and 2.00 sec and the “Duration of Licking” value ([1]; 0.5 mg/kg i.p., 5 min) was 0.00 s. The “Duration of Licking” value ([1]; 0.5 mg/kg i.p., 10 min) was 0.00 s, the “Duration of Licking” value ([1]; 0.5 mg/kg i.p., 15 min) was 0.00 s and the “Duration of Licking” value ([1]; 0.5 mg/kg i.p., 20 min) was 0.00 s. For the same molecule, the “Duration of Licking” value ([1]; 0.5 mg/kg i.p., 25 min) was 0.00 s, the “Duration of Licking” value ([1]; 0.5 mg/kg i.p., 30 min) was 0.00 s and the “Duration of Licking” value ([1]; 0.5 mg/kg i.p., 35 min) was 0.00 s. The “Duration of Licking” value ([1]; 0.5 mg/kg i.p., 40 min) was 0.00 s, the “Area Under the Curve, Drug Tested” value ([1]; 0.5 mg/kg i.p., Acute phase) was 7.3 and the “Area Under the Curve, Drug Tested” value [1, 12] was 0.0. The “Inhibition of phase 1 (acute) and phase 2 (inflammatory) pain response” value ([1]; 1 mg/kg i.p., mice) was “complete inhibition”, the “Area Under the Curve, Drug Treated” value ([1]; 1 mg/kg i.p., Acute phase) was 0.0 and the “Area Under the Curve, Drug Treated” value [1, 13] was 0.0. The activity at 0.5 mg/kg ([1]; 0.5 mg/kg i.p., Acute phase) was 2.8%, the activity at 0.5 mg/kg [1, 12] was 0% and the activity at 1 mg/kg ([1]; 1 mg/kg i.p., Acute phase) was 0%. For the same molecule, the activity at 1 mg/kg [1, 13] was 0%, the TD50 [2] was 0.83 mg/kg and the Toxicity ([3]; 5 mg/kg I.P., within 30 minutes post administration) was “toxic in all animals”. The Behavioral impairment ([3]; mouse, in vivo) was “marked motor impairment”, the “N/F (mice showing an effect / mice tested), TOX” value ([3]; mouse, in vivo, 0.1 mg/kg, 4 h) was 0/4 and the “N/F (mice showing an effect / mice tested), TOX” value ([3]; mouse, in vivo, 0.3 mg/kg, 4 h) was 0/4. The “N/F (mice showing an effect / mice tested), TOX” value ([3]; mouse, in vivo, 1 mg/kg, 0.5 h) was 4/4, the “N/F (mice showing an effect / mice tested), TOX” value ([3]; mouse, in vivo, 1 mg/kg, 4 h) was 2/2 and the “N/F (mice showing an effect / mice tested), TOX” value ([3]; mouse, in vivo, 3 mg/kg, 0.5 h) was 8/8. For the same molecule, the “N/F (mice showing an effect / mice tested), TOX” value ([3]; mouse, in vivo, 3 mg/kg, 4 h) was 4/4, the “N/F (mice showing an effect / mice tested), TOX” value ([3]; mouse, in vivo, 10 mg/kg, 0.5 h) was 4/4 and the “N/F (mice showing an effect / mice tested), TOX” value ([3]; mouse, in vivo, 10 mg/kg, 4 h) was 2/2. The “N/F (mice showing an effect / mice tested), TOX” value ([3]; mouse, in vivo, 30 mg/kg, 0.5 h) was 4/4, the “N/F (mice showing an effect / mice tested), TOX” value ([3]; mouse, in vivo, 100 mg/kg, 0.5 h) was 8/8 and the “N/F (mice showing an effect / mice tested), TOX” value ([3]; mouse, in vivo, 300 mg/kg, 0.5 h) was 4/4. For the same molecule, the “Behavioral motor impairment, share of mice tested” value ([3]; mouse, in vivo, 2 mg/kg) was 75%, the “Behavioral motor impairment, share of mice tested” value ([3]; mouse, in vivo, 4 mg/kg) was 100% and the “Maximum Protection Observed” value [4] was 0%. The “N/F (mice showing an effect / mice tested), SCMET” value ([5]; 1 mg/kg SOL, 0.5 h) was 3/5, the “N/F (mice showing an effect / mice tested), SCMET” value ([5]; 1 mg/kg SOL, 4.0 h) was 0/1 and the “N/F (mice showing an effect / mice tested), SCMET” value ([5]; 3 mg/kg SUS, 0.5 h) was 1/1. For the same molecule, the “N/F (mice showing an effect / mice tested), SCMET” value ([5]; 3 mg/kg SUS, 4.0 h) was 0/1, the “N/F (mice showing an effect / mice tested), SCMET” value ([5]; 10 mg/kg SUS, 0.5 h) was 0/1 and the “N/F (mice showing an effect / mice tested), SCMET” value ([5]; 10 mg/kg SUS, 4.0 h) was 1/1. The “Maximum Protection Observed” value ([5]; scPTZ, Mouse, 1 mg/kg, time of test 2 h) was 25%, the Behavioral impairment [6] was “marked motor impairment” and the “Protection in the mouse 6 Hz test (FIG. 1)” value ([7]; 0.8 mg/kg) was “time-dependent protection”. The “Maximum Protection Observed” value ([7]; 6 Hz, Mouse, 0.83 mg/kg, i.p., time of test 1 h) was 100%, the “N/F, Time to Peak Effect” value ([7]; 0.83 mg/kg, 0.25 h) was 1/4 and the “N/F, Time to Peak Effect” value ([7]; 0.83 mg/kg, 0.5 h) was 1/4. The “N/F, Time to Peak Effect” value ([7]; 0.83 mg/kg, 1.0 h) was 4/4, the “N/F, Time to Peak Effect” value ([7]; 0.83 mg/kg, 2.0 h) was 2/4 and the “N/F, Time to Peak Effect” value ([7]; 0.83 mg/kg, 4.0 h) was 0/4. For the same molecule, the “Protection against 6 Hz seizures (FIG. 2)” value ([7]; mouse, in vivo) was “dose-dependent protection”, the “COMMENT (observed effect)” value ([7]; mouse, in vivo, 0.18 mg/kg) was “Minimal motor impairment” and the “COMMENT (observed effect)” value ([7]; mouse, in vivo, 0.2 mg/kg) was “Tremors”. For the same molecule, the “COMMENT (observed effect)” value ([7]; mouse, in vivo, 0.35 mg/kg) was “Minimal motor impairment”, the “Adverse effects in patients” value [8] was “noted infrequently and were mainly cholinergic” and the ED50 ([9]; 1 h, 22 mA) was 0.279 mg/kg. It also gave an ED50 ([9]; 1 h, 32 mA) of 0.339 mg/kg, an ED50 ([9]; 22 mA) of 0.28 mg/kg and an ED50 ([9]; 32 mA) of 0.34 mg/kg. The ED50 ([9]; 44 mA) was 0.78 mg/kg, the “Protection in the mouse MES test (FIG. 1)” value ([10]; 1 mg/kg) was “time-dependent protection” and the “Mice protected against seizures, MES” value ([10]; 30 minutes post administration) was 33%. For the same molecule, the “Mice protected against seizures, MES” value ([10]; four hours post administration) was 100%, the “Maximum Protection Observed” value ([10]; MES, Mouse, 1 mg/kg, i.p., time of test 1 & 2 h) was 75% and the “N/F (mice showing an effect / mice tested), MES” value ([10]; i.p., 0.1 mg/kg SOL, 4.0 h) was 0/4. The “N/F (mice showing an effect / mice tested), MES” value ([10]; i.p., 0.3 mg/kg SOL, 4.0 h) was 0/4, the “N/F (mice showing an effect / mice tested), MES” value ([10]; i.p., 1 mg/kg SUS, 0.5 h) was 0/1 and the “N/F (mice showing an effect / mice tested), MES” value ([10]; i.p., 1 mg/kg SUS, 4.0 h) was 1/1. The “N/F (mice showing an effect / mice tested), MES” value ([10]; i.p., 3 mg/kg SUS, 0.5 h) was 1/3, the “N/F (mice showing an effect / mice tested), MES” value ([10]; i.p., 3 mg/kg SUS, 4.0 h) was 3/3 and the “N/F (mice showing an effect / mice tested), MES” value ([10]; i.p., 10 mg/kg SUS, 0.5 h) was 1/1. The “N/F (mice showing an effect / mice tested), MES” value ([10]; i.p., 10 mg/kg SUS, 4.0 h) was 1/1, the “N/F, MES time course” value ([10]; 0.5 h) was 1/4 and the “N/F, MES time course” value ([10]; 1.0 h) was 3/4. The “N/F, MES time course” value ([10]; 2.0 h) was 3/4, the “N/F, MES time course” value ([10]; 4.0 h) was 3/4 and the “N/F, MES time course” value ([10]; 6.0 h) was 4/4. For the same molecule, the “N/F, MES time course” value ([11]; 0.25 h) was 0/4, the “N/F, MES time course” value ([11]; 0.5 h) was 0/4 and the “N/F, MES time course” value ([11]; 1.0 h) was 1/4. The “N/F, MES time course” value ([11]; 2.0 h) was 1/4, the “N/F, MES time course” value ([11]; 4.0 h) was 0/4 and the “N/F, MES time course” value ([11]; 6.0 h) was 0/4.
